What was measured:
[1] = biological target: T1, full-length human tau (T40) / 12 kD PHF-core tau fragment (Homo sapiens, UniProt P10636); conditions: for inhibition of 12 kD:T40 ratio (in words): IPTG 0-50 μM, thionine and tolonium chloride with 200 μM DTT/ascorbate, chlorpromazine and tacrine without reducing agents
[2] = Extent of reduction of diaminophenothiazines by DTT or ascorbic acid; type: physicochemical; conditions: approx. 500:1 DTT excess, at 120 minutes
[3] = biological target: T1, full-length human tau (T40) / 12 kD PHF-core tau fragment; experiment: cell-based
[4] = in vivo; cited from earlier work

T1 sequence (P10636 1-441 isoform P10636-8): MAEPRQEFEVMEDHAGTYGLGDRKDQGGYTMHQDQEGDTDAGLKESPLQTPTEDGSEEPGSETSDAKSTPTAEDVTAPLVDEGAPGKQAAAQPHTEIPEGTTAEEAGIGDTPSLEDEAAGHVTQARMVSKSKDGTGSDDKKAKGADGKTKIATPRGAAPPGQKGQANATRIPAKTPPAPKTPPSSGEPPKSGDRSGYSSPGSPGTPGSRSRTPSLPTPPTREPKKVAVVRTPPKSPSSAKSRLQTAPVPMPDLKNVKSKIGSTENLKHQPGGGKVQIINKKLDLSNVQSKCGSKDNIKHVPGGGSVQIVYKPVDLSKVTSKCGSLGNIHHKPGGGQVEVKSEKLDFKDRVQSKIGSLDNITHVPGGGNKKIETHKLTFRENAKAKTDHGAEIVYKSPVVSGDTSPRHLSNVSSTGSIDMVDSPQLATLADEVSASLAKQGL

Molecule	extent of reduction [2]	inhibition of 12 kD:T40 ratio (in words) [1]	Ki [3]	other results
Cc1cc(N(C)C)cc2[s+]c3cc(N(C)C)cc(C)c3nc12 [DMMB, 1,9-Dimethylmethylene Blue]	relatively little reduced			effect on tau degradation products within the cell ([1]; 1 μM DMMB, with and without IPTG induction): effectively abolished all degradation products; IC50 ([1]; read-out: cellular B50 value, base-line expression of the 12/14 kD species, concentration reducing 12 kD production to 50%): ~100 nM
CN(C)CCCN1c2ccccc2Sc2ccc(Cl)cc21 [chlorpromazine]		non-inhibitory	2120 nM	
Nc1c2c(nc3ccccc13)CCCC2 [tacrine]		non-inhibitory	802 nM	
Cc1cc2nc3ccc(N(C)C)cc3[s+]c2cc1N [tolonium chloride]				half live in blood [4]: approximately 100 minutes
thionine	completely reduced	essentially identical inhibition		toxicity to cells of the assay [1]: toxic; conversion of induced T40 into the 12 kD fragment ([1]; 2 μM thionine (reduced), increasing IPTG): not converted into the 12 kD fragment

Source: patent US7335505B2, “Materials and methods relating to protein aggregation in neurodegenerative disease” (Wista Laboratories Ltd., priority 2001, dated 2008)
